Assay results as given in patent publication US12115178B2, “Acylated active agents and methods of their use for the treatment of autoimmune disorders” (Flagship Pioneering Innovations V, Inc., priority 2018, dated 2024).

Key:
Format in all cases: in vitro ADME
[1] = Assay 1. Stability in Simulated Gastric Fluid (SGF)
How it was run: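 Compound at 1 μM final (from 1 mM DMSO stock) incubated at 37° C in SGF: NaCl medium at pH 1.6 with FaSSIF powder and 0.1 mg/mL pepsin, prepared fresh. Aliquots taken at T0 and regular intervals, quenched with equal volume acetonitrile; LC/MS gives degradation rate.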

[2] = Assay 2. Stability in Simulated Intestinal Fluid (SIF); details: SIF pH 6.7 with pancreatin, 1 μM, 37° C.
How it was run: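 Compounds at 1 µM (from 1 mM DMSO stock) were incubated at 37 °C with agitation in simulated intestinal fluid: FaSSIF in pH 6.7 phosphate buffer with pancreatin. Aliquots taken from T0 onward were quenched with acetonitrile and analyzed by LC/MS for degradation rate.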

[3] = Assay 3. In vitro Colonic Material Stability Assay; details: colonic material slurry, anaerobic, 1 or 10 μM
[4] = SGF pH 1.6 with pepsin, 1 μM, 37° C.

SMILES	Assay 1 (SGF) (% Remaining @ 1 hour) [1, 4]	Assay 2 (SIF) (% @ Remaining 4 hours) [2]	Assay 3 (% Remaining at 24 h) [3]	Assay 1 (SGF) (% Remaining @ 1 hour) ([1]; Batch 1, SGF)	Assay 1 (SGF) (% Remaining @ 1 hour) ([1]; Batch 2, SGF)
CCC(=O)O[C@@H]1[C@@H](OC(=O)CC)[C@@H](OC(=O)/C=C/c2c[nH]c3ccccc23)OC[C@H]1OC(=O)CC [Compound 93, (2R,3R,4S,5R)-3,4,5-tris(propanoyloxy)oxan-2-yl (2E)-3-(1H-indol-3-yl)prop-2-enoate]	C (>75% of the tested compound remaining)	A (<25% of the tested compound remaining)	A (<25% of the tested compound remaining)	–	–
CCCC(=O)O[C@@H]1[C@@H](OC(=O)CCC)[C@H](C)O[C@@H](Oc2ccc(N)cc2C(=O)O)[C@@H]1OC(=O)CCC [Compound 39, 5-amino-2-(((2S,3R,4R,5S,6S)-3,4,5-tris(butyryloxy)-6-methyltetrahydro-2H-pyran-2-yl)oxy)benzoic acid]	C (>75% of the tested compound remaining)	B (25-75% of the tested compound remaining)	C (>75% of the tested compound remaining)	–	–
C[C@@H]1OC(O)[C@@H](OC(=O)CCc2c[nH]c3ccccc23)[C@H](OC(=O)CCc2c[nH]c3ccccc23)[C@@H]1OC(=O)CCc1c[nH]c2ccccc12 (stereo partly drawn) [Compound 62, (2S,3R,4R,5S)-6-hydroxy-4,5-bis({[3-(1H-indol-3-yl)propanoyl]oxy})-2-methyloxan-3-yl 3-(1H-indol-3-yl)propanoate]	C (>75% of the tested compound remaining)	A (<25% of the tested compound remaining)	C (>75% of the tested compound remaining)	–	–
CCCC(=O)O[C@@H]1[C@@H](OC(=O)CCC)[C@@H](OC)OC[C@H]1OC(=O)CCC [Compound 71, (2S,3R,4S,5R)-4,5-bis(butanoyloxy)-2-methoxyoxan-3-yl butanoate]	B (25-75% of the tested compound remaining)	A (<25% of the tested compound remaining)	A (<25% of the tested compound remaining)	–	–
CCC(=O)O[C@@H]1[C@@H](OC(=O)CC)[C@H](OC(=O)Cc2c[nH]c3ccccc23)OC[C@@H]1OC(=O)CC [Compound 103, (3S,4S,5R,6S)-6-{[2-(1H-indol-3-yl)acetyl]oxy}-4,5-bis(propanoyloxy)oxan-3-yl propanoate]	C (>75% of the tested compound remaining)	A (<25% of the tested compound remaining)	A (<25% of the tested compound remaining)	–	–
O=C(CCc1c[nH]c2ccccc12)O[C@@H]1OC[C@H](OC(=O)CCc2c[nH]c3ccccc23)[C@H](OC(=O)CCc2c[nH]c3ccccc23)[C@H]1OC(=O)CCc1c[nH]c2ccccc12 [Compound 69, (2S,3R,4S,5S)-3,4,5-tris({[3-(1H-indol-3-yl)propanoyl]oxy})oxan-2-yl 3-(1H-indol-3-yl)propanoate]	B (25-75% of the tested compound remaining)	A (<25% of the tested compound remaining)	A (<25% of the tested compound remaining)	–	–
CCCC(=O)O[C@@H]1[C@@H](OC(=O)CCC)[C@H](Oc2ccccc2C(=O)O)OC[C@H]1OC(=O)CCC [Compound 186, 2-{[(2S,3R,4S,5R)-3,4,5-tris(butanoyloxy)oxan-2-yl]oxy}benzoic acid]	C (>75% of the tested compound remaining)	A (<25% of the tested compound remaining)	A (<25% of the tested compound remaining)	–	–
CCCC(=O)O[C@H]1[C@@H](Oc2ccc(N)cc2C(=O)O)OC[C@@H](OC(=O)CCC)[C@H]1OC(=O)CCC [Compound 21, 5-amino-2-(((2R,3R,4R,5R)-3,4,5-tris(butyryloxy)tetrahydro-2H-pyran-2-yl)oxy)benzoic acid]	C (>75% of the tested compound remaining)	C (>75% of the tested compound remaining)	B (25-75% of the tested compound remaining)	–	–
CCC(=O)O[C@@H]1[C@@H](OC(=O)CC)[C@@H](OC(=O)Cc2c[nH]c3ccccc23)OC[C@@H]1OC(=O)CC [Compound 108, (3S,4S,5R,6R)-6-{[2-(1H-indol-3-yl)acetyl]oxy}-4,5-bis(propanoyloxy)oxan-3-yl propanoate]	C (>75% of the tested compound remaining)	A (<25% of the tested compound remaining)	A (<25% of the tested compound remaining)	–	–
CCC(=O)Oc1ccc(-c2cc(=O)c3c(O)cc(OC(=O)CC)cc3o2)cc1 [Compound 168, 5-hydroxy-4-oxo-2-[4-(propanoyloxy)phenyl]-4H-chromen-7-yl propanoate]	B (25-75% of the tested compound remaining)	A (<25% of the tested compound remaining)	A (<25% of the tested compound remaining)	–	–
CCC(=O)O[C@@H]1[C@@H](OC(=O)CC)[C@@H](OC(=O)Cc2c[nH]c3ccccc23)OC[C@H]1OC(=O)CC [Compound 117, (2R,3R,4S,5R)-2-{[2-(1H-indol-3-yl)acetyl]oxy}-4,5-bis(propanoyloxy)oxan-3-yl propanoate]	C (>75% of the tested compound remaining)	A (<25% of the tested compound remaining)	A (<25% of the tested compound remaining)	–	–
O=C(CCc1c[nH]c2ccccc12)O[C@H]1OC[C@H](OC(=O)CCc2c[nH]c3ccccc23)[C@H](OC(=O)CCc2c[nH]c3ccccc23)[C@H]1OC(=O)CCc1c[nH]c2ccccc12 [Compound 149, (2R,3R,4S,5S)-3,4,5-tris({[3-(1H-indol-3-yl)propanoyl]oxy})oxan-2-yl 3-(1H-indol-3-yl)propanoate]	B (25-75% of the tested compound remaining)	A (<25% of the tested compound remaining)	A (<25% of the tested compound remaining)	–	–
CCCC(=O)Oc1ccc(-c2cc(=O)c3c(OC(=O)CCC)cc(OC(=O)CCC)cc3o2)cc1 [Compound 170, 5-(butanoyloxy)-2-[4-(butanoyloxy)phenyl]-4-oxo-4H-chromen-7-yl butanoate]	B (25-75% of the tested compound remaining)	A (<25% of the tested compound remaining)	A (<25% of the tested compound remaining)	–	–
O=C(Cc1c[nH]c2ccccc12)Oc1cc(C(=O)O)cc(OC(=O)Cc2c[nH]c3ccccc23)c1OC(=O)Cc1c[nH]c2ccccc12 [Compound 200, 3,4,5-tris({[2-(1H-indol-3-yl)acetyl]oxy})benzoic acid]	C (>75% of the tested compound remaining)	A (<25% of the tested compound remaining)	A (<25% of the tested compound remaining)	–	–
CCCC(=O)O[C@H]1[C@H](OC(=O)CCC)[C@H](OC(=O)CCc2c[nH]c3ccccc23)O[C@@H](C)[C@H]1OC(=O)CCC [Compound 84, (2S,3S,4R,5R,6S)-4,5-bis(butanoyloxy)-2-{[3-(1H-indol-3-yl)propanoyl]oxy}-6-methyloxan-3-yl butanoate]	C (>75% of the tested compound remaining)	A (<25% of the tested compound remaining)	A (<25% of the tested compound remaining)	–	–
CCC(=O)OC[C@H]1O[C@H](OC(=O)Cc2c[nH]c3ccccc23)[C@H](OC(=O)CC)[C@@H](OC(=O)CC)[C@@H]1OC(=O)CC [Compound 114, [(2R,3R,4S,5R,6R)-6-{[2-(1H-indol-3-yl)acetyl]oxy}-3,4,5-tris(propanoyloxy)oxan-2-yl]methyl propanoate]	C (>75% of the tested compound remaining)	A (<25% of the tested compound remaining)	A (<25% of the tested compound remaining)	–	–
CCC(=O)O[C@H]1[C@H](OC(=O)CC)[C@H](OC(=O)CCc2c[nH]c3ccccc23)O[C@@H](C)[C@H]1OC(=O)CC [Compound 123, (2S,3S,4R,5R,6S)-6-methyl-3,4,5-tris(propanoyloxy)oxan-2-yl 3-(1H-indol-3-yl)propanoate]	–	C (>75% of the tested compound remaining)	A (<25% of the tested compound remaining)	C (>75% of the tested compound remaining)	B (25-75% of the tested compound remaining)
CO[C@H]1O[C@H](COC(C)=O)[C@@H](OC(C)=O)[C@H](OC(C)=O)[C@@H]1OC(C)=O [Compound 161, (2R,3R,4S,5S,6S)-2-(acetoxymethyl)-6-methoxytetrahydro-2H-pyran-3,4,5-triyl triacetate]	C (>75% of the tested compound remaining)	C (>75% of the tested compound remaining)	B (25-75% of the tested compound remaining)	–	–
CCC(=O)Oc1cc(OC(=O)CC)c2c(=O)c(O)c(-c3ccc(OC(=O)CC)c(OC(=O)CC)c3)oc2c1 [Compound 165, 2-[3,4-bis(propanoyloxy)phenyl]-3-hydroxy-4-oxo-7-(propanoyloxy)-4H-chromen-5-yl propanoate]	B (25-75% of the tested compound remaining)	A (<25% of the tested compound remaining)	A (<25% of the tested compound remaining)	–	–
